The record followed here is ChEMBL document CHEMBL4433224, “Hybridization of Fluoro-amodiaquine (FAQ) with Pyrimidines: Synthesis and Antimalarial Efficacy of FAQ-Pyrimidines” (ACS Med Chem Lett, 2019).

Active and inactive are the calls of the source. The calls are words filed in the database; no cut-off is given here.

One data set has as its system CHO. The experiment in a line: Cytotoxicity in CHO cells assessed as reduction in cell viability. The class given is cell-based. The conditions noted are these: Cricetulus griseus.
For `Cc1cc(NCc2cc(Nc3ccnc4cc(Cl)ccc34)ccc2F)nc(N2CCOCC2)n1`, the half-maximal inhibitory concentration (IC50) was 14600 nM.

As to `Cc1cc(NCc2cc(Nc3ccnc4cc(Cl)ccc34)ccc2F)nc(N2CCSCC2)n1`, the IC50 worked out at 15200 nM.

Take `Cc1cc(N2CCOCC2)nc(NCc2cc(Nc3ccnc4cc(Cl)ccc34)ccc2F)n1`: the IC50 stood at 4590 nM.

On to `Cc1cc(NCc2cc(Nc3ccnc4cc(Cl)ccc34)ccc2F)nc(N2CCCC2)n1`, for which the IC50 was 3800 nM.

On to `Cc1cc(N2CCN(c3ccccc3)CC2)nc(NCc2cc(Nc3ccnc4cc(Cl)ccc34)ccc2F)n1`, for which the IC50 came out at 17500 nM.

Turning to `Cc1cc(NCc2cc(Nc3ccnc4cc(Cl)ccc34)ccc2F)nc(N2CCN(c3ccccc3)CC2)n1`, the 50% inhibitory concentration (IC50) was 17400 nM.

Consider `NCc1cc(Nc2ccnc3cc(Cl)ccc23)ccc1F`, for which the half-inhibitory concentration (IC50) amounted to 31300 nM.

Take `Cc1cc(N2CCN(C)CC2)nc(NCc2cc(Nc3ccnc4cc(Cl)ccc34)ccc2F)n1`: the IC50 came to 58200 nM.

`CCN1CCN(c2cc(C)nc(NCc3cc(Nc4ccnc5cc(Cl)ccc45)ccc3F)n2)CC1`: the IC50 is 80300 nM.

For the compound `Cc1cc(N2CCSCC2)nc(NCc2cc(Nc3ccnc4cc(Cl)ccc34)ccc2F)n1`, the IC50 came out at 2710 nM.

Another data set deals with Plasmodium berghei. The experiment in a line: Antimalarial activity against Plasmodium berghei infected in mouse assessed as suppression in parasitemia at 33.3 mg/kg, po dosed once daily on days 0, 1, and 2 days post infection measured on day 5 post infection relative to untreated control. The class given is functional.
Conditions: not given
Take `CCN(CC)Cc1cc(Nc2ccnc3cc(Cl)ccc23)ccc1O` [AMODIAQUINE]: the Activity turned out to be 100%.

A further data set deals with Plasmodium berghei. The experiment in a line: Antimalarial activity against Plasmodium berghei infected in mouse assessed as suppression in parasitemia at 11.1 mg/kg, po dosed once daily on days 0, 1, and 2 days post infection measured on day 5 post infection relative to untreated control. The format is functional.
Conditions: not given
Turning to `CCN(CC)Cc1cc(Nc2ccnc3cc(Cl)ccc23)ccc1O` [AMODIAQUINE], the Activity is on record as 100%.

The test system of the next data set is Plasmodium berghei. Description: Antimalarial activity against Plasmodium berghei infected in mouse assessed as suppression in parasitemia at 33.3 mg/kg, po dosed once daily on days 0, 1, and 2 days post infection measured on day 7 post infection relative to untreated control. The format is functional.
Conditions: not given
For `CCN(CC)Cc1cc(Nc2ccnc3cc(Cl)ccc23)ccc1O` [AMODIAQUINE], the Activity was 100%.

The next data set relates to Plasmodium berghei. The experiment in a line: Antimalarial activity against Plasmodium berghei infected in mouse assessed as suppression in parasitemia at 11.1 mg/kg, po dosed once daily on days 0, 1, and 2 days post infection measured on day 7 post infection relative to untreated control. The format is functional.
Conditions: not given
Regarding `CCN(CC)Cc1cc(Nc2ccnc3cc(Cl)ccc23)ccc1O` [AMODIAQUINE], the Activity came to 100%.

The subject of a further data set is Plasmodium berghei. Description: Antimalarial activity against Plasmodium berghei infected in mouse assessed as host survival at 33.3 mg/kg, po dosed once daily on days 0, 1, and 2 days post infection measured on day 28 post infection relative to untreated control.
Conditions: not given
The class given is functional, organism-based.
`CCN(CC)Cc1cc(Nc2ccnc3cc(Cl)ccc23)ccc1O` [AMODIAQUINE]: the outcome was Active.

The subject of another data set is Plasmodium berghei. The experiment in a line: Antimalarial activity against Plasmodium berghei infected in mouse assessed as host survival at 11.1 mg/kg, po dosed once daily on days 0, 1, and 2 days post infection measured on day 28 post infection relative to untreated control. The format is functional, organism-based.
Conditions: not given
Regarding `CCN(CC)Cc1cc(Nc2ccnc3cc(Cl)ccc23)ccc1O` [AMODIAQUINE], the result was Active.

A further data set relates to Plasmodium berghei. The experiment in a line: Antimalarial activity against Plasmodium berghei infected in mouse assessed as mean survival time at 33.3 mg/kg, po dosed once daily on days 0, 1, and 2 days post infection measured on day 28 post infection (reference value: 13.2 days). The format is functional.
Conditions: not given
Take `CCN(CC)Cc1cc(Nc2ccnc3cc(Cl)ccc23)ccc1O` [AMODIAQUINE]: the MST was determined as 28 days.

In another data set the test system is Plasmodium berghei. Description: Antimalarial activity against Plasmodium berghei infected in mouse assessed as mean survival time at 11.1 mg/kg, po dosed once daily on days 0, 1, and 2 days post infection measured on day 28 post infection (reference value: 13.2 days). The class given is functional.
Conditions: not given
In the case of `CCN(CC)Cc1cc(Nc2ccnc3cc(Cl)ccc23)ccc1O` [AMODIAQUINE], the MST is 28 days.

Another data set relates to Plasmodium berghei. Description: Antimalarial activity against Plasmodium berghei infected in mouse assessed as parasitemia cure at 33.3 mg/kg, po dosed once daily on days 0, 1, and 2 days post infection measured on day 28 post infection.
Conditions: not given
The class given is functional, organism-based.
Take `CCN(CC)Cc1cc(Nc2ccnc3cc(Cl)ccc23)ccc1O` [AMODIAQUINE]: the result was Active.

Tested on in the next data set: not listed separately
Description: Half life human liver microsomes in the presence of NADPH. The class given is ADME, Microsome.
Conditions: not given
On the technique in general: Liver microsomes are a subcellular fraction often used to study metabolism.
Regarding `CCN(CC)Cc1cc(Nc2ccnc3cc(Cl)ccc23)ccc1O` [AMODIAQUINE], the half-life was 5.4 min.

Tested on in a further data set: not listed separately
Description: Intrinsic clearance human liver microsomes in the presence of NADPH. The conditions noted are these: read-out: CLH. The class given is ADME, Microsome.
For `CCN(CC)Cc1cc(Nc2ccnc3cc(Cl)ccc23)ccc1O` [AMODIAQUINE], the microsomal CLint turned out to be 431 µL/min/mg.

Tested on in another data set: not listed separately
Description: in vitro. The conditions noted are these: hamster, CHO cells versus Plasmodium falciparum NF54.
Description: Selectivity index, ratio of IC50 for CHO cells to IC50 for antiplasmodial activity against chloroquine-sensitive Plasmodium falciparum NF54
In the case of `Cc1cc(NCc2cc(Nc3ccnc4cc(Cl)ccc34)ccc2F)nc(N2CCOCC2)n1`, the selectivity ratio was found to be 544.

Turning to `Cc1cc(NCc2cc(Nc3ccnc4cc(Cl)ccc34)ccc2F)nc(N2CCSCC2)n1`, the selectivity ratio came out at 664.

As for `Cc1cc(N2CCOCC2)nc(NCc2cc(Nc3ccnc4cc(Cl)ccc34)ccc2F)n1`, the selectivity ratio was found to be 380.

For the compound `Cc1cc(NCc2cc(Nc3ccnc4cc(Cl)ccc34)ccc2F)nc(N2CCCC2)n1`, the selectivity ratio is 306.

Take `Cc1cc(N2CCN(c3ccccc3)CC2)nc(NCc2cc(Nc3ccnc4cc(Cl)ccc34)ccc2F)n1`: the selectivity ratio was 251.

As for `Cc1cc(NCc2cc(Nc3ccnc4cc(Cl)ccc34)ccc2F)nc(N2CCN(c3ccccc3)CC2)n1`, the selectivity ratio is 981.

As for `NCc1cc(Nc2ccnc3cc(Cl)ccc23)ccc1F`, the selectivity ratio is 680.

For the compound `Cc1cc(N2CCN(C)CC2)nc(NCc2cc(Nc3ccnc4cc(Cl)ccc34)ccc2F)n1`, the selectivity ratio was 3800.

As for `CCN1CCN(c2cc(C)nc(NCc3cc(Nc4ccnc5cc(Cl)ccc45)ccc3F)n2)CC1`, the selectivity ratio is 2780.

As for `Cc1cc(N2CCSCC2)nc(NCc2cc(Nc3ccnc4cc(Cl)ccc34)ccc2F)n1`, the selectivity ratio came out at 362.

Tested on in the next data set: not listed separately
Description: in vitro. The conditions noted are these: hamster, CHO cells versus Plasmodium falciparum Dd2.
Description: Selectivity index, ratio of IC50 for CHO cells to IC50 for antiplasmodial activity against chloroquine-resistant Plasmodium falciparum Dd2
`Cc1cc(NCc2cc(Nc3ccnc4cc(Cl)ccc34)ccc2F)nc(N2CCOCC2)n1`: the selectivity ratio is 437.

For `Cc1cc(NCc2cc(Nc3ccnc4cc(Cl)ccc34)ccc2F)nc(N2CCSCC2)n1`, the selectivity ratio came out at 459.

For the compound `Cc1cc(N2CCOCC2)nc(NCc2cc(Nc3ccnc4cc(Cl)ccc34)ccc2F)n1`, the selectivity ratio is 256.

In the case of `Cc1cc(NCc2cc(Nc3ccnc4cc(Cl)ccc34)ccc2F)nc(N2CCCC2)n1`, the selectivity ratio was 462.

With `Cc1cc(N2CCN(c3ccccc3)CC2)nc(NCc2cc(Nc3ccnc4cc(Cl)ccc34)ccc2F)n1`, the selectivity ratio was found to be 282.

In the case of `Cc1cc(NCc2cc(Nc3ccnc4cc(Cl)ccc34)ccc2F)nc(N2CCN(c3ccccc3)CC2)n1`, the selectivity ratio came to 555.

In the case of `NCc1cc(Nc2ccnc3cc(Cl)ccc23)ccc1F`, the selectivity ratio worked out at 533.

Consider `Cc1cc(N2CCN(C)CC2)nc(NCc2cc(Nc3ccnc4cc(Cl)ccc34)ccc2F)n1`, for which the selectivity ratio came out at 3160.

Turning to `CCN1CCN(c2cc(C)nc(NCc3cc(Nc4ccnc5cc(Cl)ccc45)ccc3F)n2)CC1`, the selectivity ratio came out at 3430.

Take `Cc1cc(N2CCSCC2)nc(NCc2cc(Nc3ccnc4cc(Cl)ccc34)ccc2F)n1`: the selectivity ratio came out at 169.

A further data set has as its system Plasmodium falciparum. The experiment in a line: microbe, parasite or virus in culture. The conditions noted are these: NF54, 48 h.
Description: Antiplasmodial activity against chloroquine-sensitive Plasmodium falciparum NF54 incubated for 48 hrs by parasite lactate dehydrogenase assay
`Cc1cc(NCc2cc(Nc3ccnc4cc(Cl)ccc34)ccc2F)nc(N2CCOCC2)n1` yielded an IC50 of 26.7 nM.

For `Cc1cc(NCc2cc(Nc3ccnc4cc(Cl)ccc34)ccc2F)nc(N2CCSCC2)n1`, the midpoint of inhibition, the IC50, lay at 22.8 nM.

`Cc1cc(N2CCOCC2)nc(NCc2cc(Nc3ccnc4cc(Cl)ccc34)ccc2F)n1`: the IC50 stood at 12.1 nM.

Compound `Cc1cc(NCc2cc(Nc3ccnc4cc(Cl)ccc34)ccc2F)nc(N2CCCC2)n1` gave an IC50 of 12.4 nM.

`Cc1cc(N2CCN(c3ccccc3)CC2)nc(NCc2cc(Nc3ccnc4cc(Cl)ccc34)ccc2F)n1` showed an IC50 of 69.8 nM.

`Cc1cc(NCc2cc(Nc3ccnc4cc(Cl)ccc34)ccc2F)nc(N2CCN(c3ccccc3)CC2)n1` registered an IC50 of 17.7 nM.

Take `NCc1cc(Nc2ccnc3cc(Cl)ccc23)ccc1F`: half-maximal inhibition (IC50) required 46.1 nM.

With `Cc1cc(N2CCN(C)CC2)nc(NCc2cc(Nc3ccnc4cc(Cl)ccc34)ccc2F)n1`, the half-maximal inhibitory concentration (IC50) came out at 15.3 nM.

For the compound `CCN1CCN(c2cc(C)nc(NCc3cc(Nc4ccnc5cc(Cl)ccc45)ccc3F)n2)CC1`, half-maximal inhibition (IC50) required 28.9 nM.

The compound `Cc1cc(N2CCSCC2)nc(NCc2cc(Nc3ccnc4cc(Cl)ccc34)ccc2F)n1` returned an IC50 of 7.47 nM.

A further data set has as its system Plasmodium falciparum. Description: microbe, parasite or virus in culture. The conditions noted are these: Dd2, 48 h.
Description: Antiplasmodial activity against chloroquine-resistant Plasmodium falciparum Dd2 incubated for 48 hrs by parasite lactate dehydrogenase assay
`Cc1cc(NCc2cc(Nc3ccnc4cc(Cl)ccc34)ccc2F)nc(N2CCOCC2)n1` showed an IC50 of 33.3 nM.

`Cc1cc(NCc2cc(Nc3ccnc4cc(Cl)ccc34)ccc2F)nc(N2CCSCC2)n1` came in with an IC50 of 33.1 nM.

`Cc1cc(N2CCOCC2)nc(NCc2cc(Nc3ccnc4cc(Cl)ccc34)ccc2F)n1` returned an IC50 of 17.9 nM.

The compound `Cc1cc(NCc2cc(Nc3ccnc4cc(Cl)ccc34)ccc2F)nc(N2CCCC2)n1` registered an IC50 of 8.23 nM.

For `Cc1cc(N2CCN(c3ccccc3)CC2)nc(NCc2cc(Nc3ccnc4cc(Cl)ccc34)ccc2F)n1`, the IC50 was determined as 62.2 nM.

`Cc1cc(NCc2cc(Nc3ccnc4cc(Cl)ccc34)ccc2F)nc(N2CCN(c3ccccc3)CC2)n1` displayed an IC50 of 31.3 nM.

Turning to `NCc1cc(Nc2ccnc3cc(Cl)ccc23)ccc1F`, the half-inhibitory concentration (IC50) was determined as 58.7 nM.

`Cc1cc(N2CCN(C)CC2)nc(NCc2cc(Nc3ccnc4cc(Cl)ccc34)ccc2F)n1` gave a half-inhibitory concentration (IC50) of 18.4 nM.

`CCN1CCN(c2cc(C)nc(NCc3cc(Nc4ccnc5cc(Cl)ccc45)ccc3F)n2)CC1` came in with a concentration for half-maximal inhibition (IC50) of 23.4 nM.

Regarding `Cc1cc(N2CCSCC2)nc(NCc2cc(Nc3ccnc4cc(Cl)ccc34)ccc2F)n1`, the concentration for half-maximal inhibition (IC50) amounted to 16 nM.

The IC50 is the concentration that inhibits the measured activity by half. A word on the half-life: it is how long it takes for the measured level to halve.
